In ChEMBL document CHEMBL1138471, “Synthesis and inotropic evaluation of 1-substituted-N-(4,5-dihydro-1-methyl-[1,2,4]triazolo[4,3-a]quinolin-7-yl)piperidine-4-carboxamides” (2009):
Activity calls are given as the source filed them. No cut-off for these calls is given here.

Legend:
[1] = organism: Oryctolagus cuniculus; experiment: Negative inotropic activity in New Zealand White rabbit beating left atrium assessed as decrease in stroke volume at 100 umol/L after incubation for longer period; type: functional, tissue-based; settings: Cardiac atrium
[2] = (§1) Positive inotropic activity in New Zealand White rabbit beating left atrium assessed as increase in stroke volume at 100 umol/L after 36 mins; type: functional, Oryctolagus cuniculus, Cardiac atrium
[3] = organism: Oryctolagus cuniculus; experiment: as §1; type: functional; settings: Cardiac atrium
[4] = organism: Oryctolagus cuniculus; experiment: Positive inotropic activity in New Zealand White rabbit beating left atrium assessed as increase in stroke volume after 36 mins; type: functional, tissue-based; settings: Cardiac atrium
[5] = organism: Oryctolagus cuniculus; experiment: Positive inotropic activity in New Zealand White rabbit beating left atrium assessed as increase in stroke volume at 300 umol/L after 36 mins; type: functional, tissue-based; settings: Cardiac atrium

Structure (SMILES)	Activity [2] [%]	Activity [3]	other results
Cc1nnc2n1-c1ccc(NC(=O)C3CCN(Cc4ccc(Cl)cc4Cl)CC3)cc1CC2	7.83		Activity [1]: Active
COc1cc(CN2CCC(C(=O)Nc3ccc4c(c3)CCc3nnc(C)n3-4)CC2)ccc1OCc1ccc(C)cc1		inactive	
Cc1nnc2n1-c1ccc(NC(=O)C3CCN(Cc4ccc5c(c4)OCO5)CC3)cc1CC2	2.96		
COc1cc(CN2CCC(C(=O)Nc3ccc4c(c3)CCc3nnc(C)n3-4)CC2)ccc1OCc1c(Cl)cccc1Cl		inactive	
COc1cc(CN2CCC(C(=O)Nc3ccc4c(c3)CCc3nnc(C)n3-4)CC2)ccc1OCc1cccc(Cl)c1	5.56		Activity [1]: Active
Cc1nnc2n1-c1ccc(NC(=O)C3CCN(Cc4ccc(Cl)cc4)CC3)cc1CC2		inactive	
Cc1ccc(CN2CCC(C(=O)Nc3ccc4c(c3)CCc3nnc(C)n3-4)CC2)cc1		inactive	
COc1cc(CN2CCC(C(=O)Nc3ccc4c(c3)CCc3nnc(C)n3-4)CC2)ccc1OCc1ccc(Cl)cc1	5.13		Activity [1]: Active
Cc1[nH]c(=O)c(C#N)cc1-c1ccncc1 [MILRINONE]	6.36		
Cc1nnc2n1-c1ccc(NC(=O)C3CCN(Cc4cccc(F)c4)CC3)cc1CC2	1.56		
COc1cc(CN2CCC(C(=O)Nc3ccc4c(c3)CCc3nnc(C)n3-4)CC2)ccc1OCc1cccc([N+](=O)[O-])c1		inactive	
Cc1nnc2n1-c1ccc(NC(=O)C3CCN(Cc4ccccc4Br)CC3)cc1CC2	1.67		
COc1cc(CN2CCC(C(=O)Nc3ccc4c(c3)CCc3nnc(C)n3-4)CC2)ccc1OCc1ccccc1[N+](=O)[O-]		inactive	
COc1cc(CN2CCC(C(=O)Nc3ccc4c(c3)CCc3nnc(C)n3-4)CC2)ccc1OCc1ccc(F)cc1		inactive	
COc1ccc(COc2ccc(CN3CCC(C(=O)Nc4ccc5c(c4)CCc4nnc(C)n4-5)CC3)cc2OC)cc1	6.08		Activity [1]: Active
Cc1nnc2n1-c1ccc(NC(=O)C3CCN(Cc4ccccc4[N+](=O)[O-])CC3)cc1CC2		inactive	

Structure (SMILES)	Activity [2] [%]	Activity [3]	other results
COc1cc(CN2CCC(C(=O)Nc3ccc4c(c3)CCc3nnc(C)n3-4)CC2)ccc1OCc1ccccc1F	7.41		Activity [4]: Dose-dependent effect; Activity [5]: inactive
Cc1nnc2n1-c1ccc(NC(=O)C3CCN(Cc4cccc([N+](=O)[O-])c4)CC3)cc1CC2	8.14		
COc1cc(CN2CCC(C(=O)Nc3ccc4c(c3)CCc3nnc(C)n3-4)CC2)ccc1OCc1ccccc1Cl		inactive	
COc1cc(CN2CCC(C(=O)Nc3ccc4c(c3)CCc3nnc(C)n3-4)CC2)ccc1OCc1ccc(Cl)cc1Cl	2.78		
COc1ccc(CN2CCC(C(=O)Nc3ccc4c(c3)CCc3nnc(C)n3-4)CC2)cc1OC	1.87		
Cc1nnc2n1-c1ccc(NC(=O)C3CCN(Cc4ccc(F)cc4)CC3)cc1CC2		inactive	
Cc1nnc2n1-c1ccc(NC(=O)C3CCN(Cc4ccccc4)CC3)cc1CC2		inactive	
Cc1nnc2n1-c1ccc(NC(=O)C3CCN(Cc4ccccc4Cl)CC3)cc1CC2	0.4		Activity [1]: Active
Cc1nnc2n1-c1ccc(NC(=O)C3CCN(Cc4ccccc4F)CC3)cc1CC2	11.92		Activity [4]: Dose-dependent effect; Activity [5]: inactive
COc1cc(CN2CCC(C(=O)Nc3ccc4c(c3)CCc3nnc(C)n3-4)CC2)ccc1OCc1cccc(F)c1	0.18		
COc1ccc(COc2ccc(CN3CCC(C(=O)Nc4ccc5c(c4)CCc4nnc(C)n4-5)CC3)cc2OC)cc1OC		inactive	
COc1cc(CN2CCC(C(=O)Nc3ccc4c(c3)CCc3nnc(C)n3-4)CC2)ccc1OCc1ccccc1	5.19		
COc1cc(CN2CCC(C(=O)Nc3ccc4c(c3)CCc3nnc(C)n3-4)CC2)ccc1OCc1ccccc1Br		inactive	
COc1ccc(CN2CCC(C(=O)Nc3ccc4c(c3)CCc3nnc(C)n3-4)CC2)cc1		inactive	
Cc1nnc2n1-c1ccc(NC(=O)C3CCN(Cc4c(Cl)cccc4Cl)CC3)cc1CC2		inactive	
Cc1nnc2n1-c1ccc(NC(=O)C3CCN(Cc4cccc(Cl)c4)CC3)cc1CC2	9.97		
